We go through 14 molecules from patent publication US8865910B2 (priority 2010, dated 2014).

Read-outs that look alike come from different tables or passages of the source.

The test system of one test is M. tuberculosis. As to the kind of experiment: Antitubercular activity against active and dormant bacilli of M. tuberculosis. Format: cell-based, Mycobacterium tuberculosis H37Ra.
The test system of another test is M. bovis BCG. Kind of test: microbe, parasite or virus in culture. Format: cell-based, Mycobacterium bovis BCG. To be noted: for inhibition at 100 µg/mL: Mycobacterium tuberculosis variant bovis BCG, BCG, 192 h.
In the next test the test system is M. tuberculosis H37Rv. To be noted: BACTEC 12B medium; cited from earlier work.
In a further test the test system is dormant tubercle bacilli. To be noted: cited from earlier work.
[1] abbreviates: read-out: Antimycobacterial activity % inhibition at 100 μg/ml Aerobic/Active stage.
The mark [2] stands for this setting: read-out: Antimycobacterial activity % inhibition at 100 μg/ml Anearobic/Dormant stage.

`C=CCSc1n[nH]c(-c2ccc(Cl)cc2)n1` [compound 4f, 3-(allylthio)-5-(4-chlorophenyl)-1H-1,2,4-triazole]: the “Effectiveness against active and dormant stage of the bacilli” value is “effective against both active as well as dormant stage” in the test with M. tuberculosis; “effective against both active as well as dormant stage” with M. bovis BCG (M. bovis BCG, active and dormant stage). Moreover, the inhibition at 100 µg/mL was 98% in the test with M. bovis BCG (setting [1]) and 91% in the test with M. bovis BCG (setting [2]).
For the molecule `CCCSc1nnc(-c2ncc([N+](=O)[O-])n2C)s1` [2-(1-Methyl-5-nitro-1H-imidazol-2-yl)-5-(n-propyl)thio-1,3,4-thiadiazole], the “inhibition effects in the primary screening” value (shortened to “inhibition effects”) in the test with M. tuberculosis H37Rv is reported as 90%.
For `CC(C)(C)C(O)(CCc1ccc(Cl)cc1)Cn1cncn1` (centres unmarked) [tebuconazole], in the test with dormant tubercle bacilli, the “Effectiveness against dormant tubercle bacilli” value was “not effective”.
Regarding `C#CCSc1nnc(-c2ccc([N+](=O)[O-])o2)s1` [2-(5-nitro-2-furyl)-5-(2-propynyl)thio-1,3,4-thiadiazole], the “inhibition effects” value with M. tuberculosis H37Rv is 90%.
Turning to `OC(Cn1cncn1)(Cn1cncn1)c1ccc(F)cc1F` [Fluconazole], the “Effectiveness against dormant tubercle bacilli” value in the test on dormant tubercle bacilli is given as “not effective”.
`O=[N+]([O-])c1cccc(CSc2nnc(-c3ccc([N+](=O)[O-])o3)s2)c1` [2-(5-nitro-2-furyl)-5-(3-nitrobenzyl)thio-1,3,4-thiadiazole]: the “inhibition effects” value with M. tuberculosis H37Rv is 90%.
Take `O=[N+]([O-])c1ccc(CSc2nnc(-c3ccc([N+](=O)[O-])o3)s2)cc1` [2-(5-nitro-2furyl)-5-(4-nitrobenzyl)thio-1,3,4-thiadiazole]: the “inhibition effects” value with M. tuberculosis H37Rv is 90%.
For `O=[N+]([O-])c1ccc(-c2nnc(SCc3ccccc3[N+](=O)[O-])s2)o1` [2-(5-nitro-2-furyl)-5-(2-nitrobenzyl)thio-1,3,4-thiadiazole], the “inhibition effects” value with M. tuberculosis H37Rv was 90%.
As for `c1ccc(Cn2cc(CSc3ncn[nH]3)nn2)cc1` [1a], the results for the inhibition at 100 µg/mL in the test on M. bovis BCG (setting [1]) and in the test with M. bovis BCG (setting [2]) were 3% and 4%, respectively.
The matching figures for `CC(C)(C)c1nc(SCc2cn(Cc3ccccc3)nn2)nn1Cc1cn(Cc2ccccc2)nn1` [2c, 1-benzyl-4-((1-((1-benzyl-1H-1,2,3-triazol-4-yl)methyl)-5-tert-butyl-1H-1,2,4-triazol-3-ylthio)methyl)-1H-1,2,3-triazole]: 8% and 15%.
The matching figures for `C=CCSc1nc(C)n(CC=C)n1` [5b, 1-allyl-3-(allylthio)-5-methyl-1H-1,2,4-triazole]: 25% and 15%.
The matching figures for `COc1ccc(-c2nc(SCc3cn(Cc4ccccc4)nn3)n(Cc3cn(Cc4ccccc4)nn3)n2)cc1` [3e, 1-benzyl-4-((1-((1-benzyl-1H-1,2,3-triazol-4-yl)methyl)-3-(4-methoxyphenyl)-1H-1,2,4-triazol-5-ylthio)methyl)-1H-1,2,3-triazole]: 86% and 82%.
On to `C#CCn1nc(SCC=C)nc1C(C)(C)C` [8d, 3-(allylthio)-5-tert-butyl-1-(prop-2-ynyl)-1H-1,2,4-triazole], for which the inhibition at 100 µg/mL in the test with M. bovis BCG (setting [1]) stood at 98%; with M. bovis BCG (setting [2]), 82%.
The matching figures for `C=CCSc1nc(-c2ccc([N+](=O)[O-])cc2)nn1CC=C` [6d, 1-allyl-5-(allylthio)-3-(4-nitrophenyl)-1H-1,2,4-triazole]: 40% and 12%.
